The nature of data set [1]: Nucleation induction time measurement from supersaturated solution. The format is physicochemical. The conditions noted are these: for Nucleation induction time / Time high (supersaturated) concentration maintained: 25 °C. The protocol: HPLC was analyzed using a Dionex-Ultimate 3000 HPLC (Dionex, Sunnyvale, CA, USA) equipped with an Inertsil ODS C18 (6.0 × 150 mm) column at 35 °C. […] The samples were analyzed by injecting 10 μL at 244 nm using a UV detector. […] The linearity was evaluated by linear regression analysis calculated using the least-squares regression method. […] The experiment was performed in triplicate (mean values + SD). Each polymer (chitosan and HPMC) was dissolved in an aqueous solution at a concentration of 500 μg/mL.

On the set-up of data set [2]: method as in a previous report. The conditions noted are these: absence of polymer; ref a previous report; cited from earlier work.

On to `CC(C)c1nc(CN(C)C(=O)N[C@H](C(=O)N[C@@H](Cc2ccccc2)C[C@H](O)[C@H](Cc2ccccc2)NC(=O)OCc2cncs2)C(C)C)cs1` [RTV, ritonavir], for which the Nucleation induction time in data set [1] (HPMC solution 500 μg/mL) stood at 32 h; in data set [1] (absence of polymer (water)), 0.5 h; in data set [1] (chitosan solution 500 μg/mL), 24 h. Besides, the “Time high (supersaturated) concentration maintained” value in data set [1] (chitosan solution 500 μg/mL) turned out to be 24 h; in data set [1] (water), 0.5 h. In data set [1] (with chitosan and HPMC versus no polymer), the “Enhancement in induction time” value is 48–64 fold. The Induction time in data set [2] is given as 120 min.

The record behind these values is article PMC10007235 (Polymers, 2023).
